# Data from US5556744A, “Methods and compositions for diagnosing and treating certain HIV infected patients” (The Trustees of the University of Pennsylvania, priority 1994, dated 1996).
# Columns and labels:
# [1] = tested on: maternal HIV+ sera (antibodies); assay: RIA / ELISA binding of maternal HIV+ sera to gp120 and gp41 peptides (Example 3); set-up: species or system human
# Summary of the method: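 Maternal sera, diluted 1:50 and 1:500, were bound overnight at 4°C to peptides immobilized at 10 μg/ml (pH 9.6 carbonate) and blocked with 1% BSA. Read-out was ¹²⁵I-labelled anti-human IgG counts or HRP-TMB OD450. Signal with peptide minus without was expressed relative to seronegative serum.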
# [2] = tested on: maternal sera (antibodies); assay: ELISA peptide-binding of maternal sera (Example 6); set-up: species or system human; conditions: for Number of Non-Transmitters which bound to peptide / Percent of Non-Transmitters which bound to peptide: N = 12; for Number of Transmitters which bound to peptide / Percent of Transmitters which bound to peptide: N = 4
# Summary of the method: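 HIV-1 envelope peptides averaging 16 amino acids, covering external and transmembrane glycoprotein, were probed by ELISA. Third-trimester maternal sera, classed as transmitter or non-transmitter by child diagnosis, were each run on at least 40 peptides. Values give percent of sera binding a peptide.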
# [3] = Serum No. 1, Non-Transmission Group
# [4] = Serum No. 2, Non-Transmission Group
# [5] = Serum No. 3, Non-Transmission Group
# [6] = Serum No. 4, Transmission Group
# [7] = Serum No. 5, Transmission Group
# [8] = Serum No. 6, Non-Transmission Group
# [9] = Serum No. 7, Non-Transmission Group
# [10] = Serum No. 8, Non-Transmission Group
# [11] = Serum No. 9, Non-Transmission Group
# [12] = Serum No. 10, Transmission Group
# [13] = Serum No. 11, Non-Transmission Group
# [14] = Serum No. 12, Non-Transmission Group
# [15] = Serum No. 13, Transmission Group
# [16] = Serum No. 14, Transmission Group
# [17] = Serum No. 15, Transmission Group
# [18] = Serum No. 16, Non-Transmission Group
# [19] = Serum No. 17, Non-Transmission Group
# [20] = Serum No. 18, Non-Transmission Group
# [21] = Serum No. 19, Transmission Group
# [22] = Serum No. 20, Non-Transmission Group
Sequence,"Binding of maternal HIV+ serum to peptide (sera/NHS ratio) [1, 3]","Binding of maternal HIV+ serum to peptide (sera/NHS ratio) [1, 4]","Binding of maternal HIV+ serum to peptide (sera/NHS ratio) [1, 5]","Binding of maternal HIV+ serum to peptide (sera/NHS ratio) [1, 6]","Binding of maternal HIV+ serum to peptide (sera/NHS ratio) [1, 7]","Binding of maternal HIV+ serum to peptide (sera/NHS ratio) [1, 8]","Binding of maternal HIV+ serum to peptide (sera/NHS ratio) [1, 9]","Binding of maternal HIV+ serum to peptide (sera/NHS ratio) [1, 10]","Binding of maternal HIV+ serum to peptide (sera/NHS ratio) [1, 11]","Binding of maternal HIV+ serum to peptide (sera/NHS ratio) [1, 12]","Binding of maternal HIV+ serum to peptide (sera/NHS ratio) [1, 13]","Binding of maternal HIV+ serum to peptide (sera/NHS ratio) [1, 14]","Binding of maternal HIV+ serum to peptide (sera/NHS ratio) [1, 15]","Binding of maternal HIV+ serum to peptide (sera/NHS ratio) [1, 16]","Binding of maternal HIV+ serum to peptide (sera/NHS ratio) [1, 17]","Binding of maternal HIV+ serum to peptide (sera/NHS ratio) [1, 18]","Binding of maternal HIV+ serum to peptide (sera/NHS ratio) [1, 19]","Binding of maternal HIV+ serum to peptide (sera/NHS ratio) [1, 20]","Binding of maternal HIV+ serum to peptide (sera/NHS ratio) [1, 21]","Binding of maternal HIV+ serum to peptide (sera/NHS ratio) [1, 22]",also measured
VSLKCTDLKNDTNTN [Peptide 97],"- (specific OD450 or cpm of sera sample binding to peptide divided by the specific OD450 or cpm of NHS sample binding to peptide, which value is less than 2)","- (specific OD450 or cpm of sera sample binding to peptide divided by the specific OD450 or cpm of NHS sample binding to peptide, which value is less than 2)","- (specific OD450 or cpm of sera sample binding to peptide divided by the specific OD450 or cpm of NHS sample binding to peptide, which value is less than 2)","- (specific OD450 or cpm of sera sample binding to peptide divided by the specific OD450 or cpm of NHS sample binding to peptide, which value is less than 2)","- (specific OD450 or cpm of sera sample binding to peptide divided by the specific OD450 or cpm of NHS sample binding to peptide, which value is less than 2)","- (specific OD450 or cpm of sera sample binding to peptide divided by the specific OD450 or cpm of NHS sample binding to peptide, which value is less than 2)","- (specific OD450 or cpm of sera sample binding to peptide divided by the specific OD450 or cpm of NHS sample binding to peptide, which value is less than 2)","- (specific OD450 or cpm of sera sample binding to peptide divided by the specific OD450 or cpm of NHS sample binding to peptide, which value is less than 2)","- (specific OD450 or cpm of sera sample binding to peptide divided by the specific OD450 or cpm of NHS sample binding to peptide, which value is less than 2)","- (specific OD450 or cpm of sera sample binding to peptide divided by the specific OD450 or cpm of NHS sample binding to peptide, which value is less than 2)","- (specific OD450 or cpm of sera sample binding to peptide divided by the specific OD450 or cpm of NHS sample binding to peptide, which value is less than 2)","- (specific OD450 or cpm of sera sample binding to peptide divided by the specific OD450 or cpm of NHS sample binding to peptide, which value is less than 2)","- (specific OD450 or cpm of sera sample binding to peptide divided by the specific OD450 or cpm of NHS sample binding to peptide, which value is less than 2)","- (specific OD450 or cpm of sera sample binding to peptide divided by the specific OD450 or cpm of NHS sample binding to peptide, which value is less than 2)","- (specific OD450 or cpm of sera sample binding to peptide divided by the specific OD450 or cpm of NHS sample binding to peptide, which value is less than 2)","- (specific OD450 or cpm of sera sample binding to peptide divided by the specific OD450 or cpm of NHS sample binding to peptide, which value is less than 2)","- (specific OD450 or cpm of sera sample binding to peptide divided by the specific OD450 or cpm of NHS sample binding to peptide, which value is less than 2)","- (specific OD450 or cpm of sera sample binding to peptide divided by the specific OD450 or cpm of NHS sample binding to peptide, which value is less than 2)","- (specific OD450 or cpm of sera sample binding to peptide divided by the specific OD450 or cpm of NHS sample binding to peptide, which value is less than 2)","- (specific OD450 or cpm of sera sample binding to peptide divided by the specific OD450 or cpm of NHS sample binding to peptide, which value is less than 2)",Binding of maternal sera to peptide (in words) ([1]; Example 3): No binding; Number of Non-Transmitters which bound to peptide [2]: 2; Percent of Non-Transmitters which bound to peptide [2]: 16.7%; Number of Transmitters which bound to peptide [2]: 0; Percent of Transmitters which bound to peptide [2]: 0%
WGIKQLQARILAVER [Peptide 120],"- (specific OD450 or cpm of sera sample binding to peptide divided by the specific OD450 or cpm of NHS sample binding to peptide, which value is less than 2)","- (specific OD450 or cpm of sera sample binding to peptide divided by the specific OD450 or cpm of NHS sample binding to peptide, which value is less than 2)","- (specific OD450 or cpm of sera sample binding to peptide divided by the specific OD450 or cpm of NHS sample binding to peptide, which value is less than 2)","- (specific OD450 or cpm of sera sample binding to peptide divided by the specific OD450 or cpm of NHS sample binding to peptide, which value is less than 2)","- (specific OD450 or cpm of sera sample binding to peptide divided by the specific OD450 or cpm of NHS sample binding to peptide, which value is less than 2)","- (specific OD450 or cpm of sera sample binding to peptide divided by the specific OD450 or cpm of NHS sample binding to peptide, which value is less than 2)","- (specific OD450 or cpm of sera sample binding to peptide divided by the specific OD450 or cpm of NHS sample binding to peptide, which value is less than 2)","- (specific OD450 or cpm of sera sample binding to peptide divided by the specific OD450 or cpm of NHS sample binding to peptide, which value is less than 2)","- (specific OD450 or cpm of sera sample binding to peptide divided by the specific OD450 or cpm of NHS sample binding to peptide, which value is less than 2)","- (specific OD450 or cpm of sera sample binding to peptide divided by the specific OD450 or cpm of NHS sample binding to peptide, which value is less than 2)","- (specific OD450 or cpm of sera sample binding to peptide divided by the specific OD450 or cpm of NHS sample binding to peptide, which value is less than 2)","- (specific OD450 or cpm of sera sample binding to peptide divided by the specific OD450 or cpm of NHS sample binding to peptide, which value is less than 2)","- (specific OD450 or cpm of sera sample binding to peptide divided by the specific OD450 or cpm of NHS sample binding to peptide, which value is less than 2)","- (specific OD450 or cpm of sera sample binding to peptide divided by the specific OD450 or cpm of NHS sample binding to peptide, which value is less than 2)","- (specific OD450 or cpm of sera sample binding to peptide divided by the specific OD450 or cpm of NHS sample binding to peptide, which value is less than 2)","- (specific OD450 or cpm of sera sample binding to peptide divided by the specific OD450 or cpm of NHS sample binding to peptide, which value is less than 2)","- (specific OD450 or cpm of sera sample binding to peptide divided by the specific OD450 or cpm of NHS sample binding to peptide, which value is less than 2)","- (specific OD450 or cpm of sera sample binding to peptide divided by the specific OD450 or cpm of NHS sample binding to peptide, which value is less than 2)","- (specific OD450 or cpm of sera sample binding to peptide divided by the specific OD450 or cpm of NHS sample binding to peptide, which value is less than 2)","- (specific OD450 or cpm of sera sample binding to peptide divided by the specific OD450 or cpm of NHS sample binding to peptide, which value is less than 2)",Number of Non-Transmitters which bound to peptide [2]: 0; Percent of Non-Transmitters which bound to peptide [2]: 0%; Number of Transmitters which bound to peptide [2]: 0; Percent of Transmitters which bound to peptide [2]: 0%
